One assay concerns Bax. The experiment in a line: Western blot of Bax content. It counts as cell-based, human. Particulars: A2780, 48 h at 72 h IC50 dose, compared to controls. The procedure: (§1) After drug treatments, cells were lysed in RIPA buffer supplemented with a cocktail of protease and phosphatase inhibitors. […] To favor the electrophoretic separation, 25% sample loading buffer (SLB) was added to the cell lysates. Here, 20 µg samples of proteins from controls and treated cells were loaded on 4–20% pre-cast SDS-PAGE gels and blotted onto PVDF membranes. Primary antibodies Bcl-2 (1:1000 dilution,#sc-7382, Santa Cruz, Dallas, Texas USA), Bax (1:1000 dilution, #sc-493, Santa Cruz), OXPHOS cocktail (1:1000 dilution, #ab110413, AbCam, Cambridge, UK), citrate synthase (1:1000 dilution, #sc-515640, Santa Cruz), ASK1 (1:1000 dilution, #sc-390275, Santa Cruz), phospho(Thr838)-ASK1 (1:1000 dilution, #CPA6042, Cohesion Biosciences, London, UK), AKT (1:1000 dilution, #sc-5298, Santa Cruz), and phospho(Ser473)-AKT (1:1000 dilution, #GTX128414, GeneTex, Irvine, CA, USA) were added to 2% non-fat dry milk in PBS-tween solution, while PVDF membranes were incubated overnight at 4 °C. Then, membranes were treated with horseradish peroxidase (HRP)-conjugated secondary antibodies (1:5000 dilution, Santa Cruz) and immunoreactive bands were detected with an ECL kit detection system on an Amersham Imager 600 (GE Healthcare, Chicago, IL, USA). For the quantification, a densitometric analysis of the bands was performed using ImageJ2 software version 2.0.0-rc-64 [23]. The intensities of the immunostained bands were normalized on the Coomassie brilliant blue R-250-stained total protein from the same PVDF membrane.
A general note: In western blotting, separated proteins are transferred to a membrane and probed.

For a further assay, the system named is OXPHOS complex II. The experiment in a line: Western blot of OXPHOS complex II content. Type of assay: cell-based, human. To be noted: A2780, 24 h at 72 h IC50 dose, vs controls. The procedure: as §1
Assay [1] deals with PNT1 (human normal prostate epithelium) cells. The experiment in a line: MTT antiproliferative assay on PNT1 cells. It counts as cell-based. To be noted: for IC50: 72 h of treatment, MTT assay, mean ± SD of three experiments, read-out: Half-maximal inhibitory concentration (IC50), PNT1; for IC50 for PNT1 higher than for A2780 (fold): ratio of 72 h IC50 PNT1 / A2780. On the procedure: (§2) The inhibition of cell proliferation by Au2phen, Auoxo6, and AuL12 on A2780 cell line was evaluated through MTT (3-(4,5-dimethylthiazol-2-yl)-2,5-diphenyltetrazolium bromide) test. Viable cells can convert MTT into formazan, which is coloured and detectable at 595 nm. Exponentially growing cells were seeded in 96 well-microplates at a density of 8 × 10^3 for 24 h and then gold compounds were added in fresh RPMI medium at concentrations ranging from 0.003 to 100 µM and incubated for 72 h. On the day of the test, cells were treated with 0.5 mg/mL MTT for 1 h at 37 °C. Following precipitation, blue formazan was dissolved in DMSO, and the optical density was read in a microplate reader interfaced with Microplate Manager/PV version 4.0 software (BioRad Laboratories, Hercules, USA). From the absorbance measurements, the half-maximal inhibitory concentration (IC50) value of each compound on A2780 cells was calculated using GraphPad Prism software version 6.0 (Graphpad Holdings, LLC, USA). The same protocol was applied on non-tumor cell lines, i.e., HEK and PNT1 cells.

In assay [2] the test system is complex I-driven mitochondrial respiration. The experiment in a line: Respiratory control ratio, complex I-driven respiration in permeabilized cells. Type of assay: cell-based, human. Particulars: permeabilized A2780, 24 h treatment; control about 3.1. On the procedure:
(§3) The analysis of the oxygen consumption rate (OCR) was performed using a Clark-type O2 electrode inserted in a thermostated airtight chamber (Oxygraph Plus System, Hansatech Instruments, King’s Lynn, Norfolk, UK). Briefly, control and treated cells (12 and 24 h) were trypsinized, washed with PBS, and suspended in culture medium to measure the steady state OCR for 10 min. The OCR values, expressed as nmol of consumed O2/mL/min, were normalized to the cellular protein content. To evaluate the response of complex I, complex II/III, and ATP-synthase-driven OCRs in the presence or absence of gold-treatment, we used the protocol described by Baracca et al.. Cells were trypsinized, washed, and resuspended in buffer containing sucrose, TRIS-HCl, MgSO4, EDTA, and KH2PO4. Cell suspension was treated with digitonin to allow cell membrane permeabilization. To stimulate complex I, 250 mM glutamate/malate was added, whereas to stimulate complex II, 250 mM succinate was added (state 2 respiration). Then, to induce ATP-synthase-driven mitochondrial respiration, 10 mM ADP was added (state 3 respiration). To estimate the mitochondrial respiratory capacity, defined as the respiratory control ratio (RCR), state 3/state 2 ratios were calculated for control and treated cells.

Assay [3] deals with HEK293 (human embryonic kidney) cells. The experiment in a line: MTT antiproliferative assay on HEK cells. To be noted: for IC50: 72 h of treatment, MTT assay, mean ± SD of three experiments, read-out: Half-maximal inhibitory concentration (IC50), HEK293; for IC50 for HEK higher than for A2780 (fold): ratio of 72 h IC50 HEK / A2780. It counts as cell-based. The procedure: as §2

Assay [4] concerns complex II-driven mitochondrial respiration. The experiment in a line: Respiratory control ratio, complex II-driven respiration in permeabilized cells. To be noted: permeabilized A2780, 24 h treatment; control about 3.0. It counts as cell-based, human. On the procedure: as §3
The test system of assay [5] is thioredoxin reductase (TrxR). To be noted: for effect on TrxR enzyme activity: A2780, 12 h treatment at 72 h IC50 dose; for inhibition of TrxR enzyme activity: A2780, 24 h treatment at 72 h IC50 dose, vs controls. The procedure:
The total thioredoxin reductase (TrxR) activity was measured using a commercial colorimetric assay kit (#CS0170, Sigma Aldrich, St. Louis, MO, USA) based on the reduction of 5,5′-dithiobis (2-nitrobenzoic) acid (DTNB) with NADPH to 5-thio-2 nitrobenzoic acid (TNB) at 412 nm. This kit also contains an inhibitor solution of mammalian thioredoxin reductase. Since several enzymes present in the biological sample can reduce DTNB, the specific inhibitor is used to determine the reduction of DTNB due only to TrxR activity. […] Cells were lysed with RIPA buffer (50 mM Tris-HCl pH 7.0, 1% (v/v) NP-40, 150 mM NaCl, 2 mM ethylene glycol bis(2-aminoethyl ether)tetra-acetic acid, 100 mM NaF) supplemented with a cocktail of protease inhibitors. The protein concentrations in the cell lysates were determined by Bradford protein assay kit (Bio-Rad Laboratories, Hercules, USA) according to the manufacturer’s instructions and then 30 µg samples of proteins were used for the assay. Results were normalized to the cellular protein content.

These results are taken from PMC8389655, “Au2phen and Auoxo6, Two Dinuclear Oxo-Bridged Gold(III) Compounds, Induce Apoptotic Signaling in Human Ovarian A2780 Cancer Cells” (Biomedicines, 2021).

Turning to `Cc1ccc2ccc3ccc(C)[n+]4c3c2[n+]1[Au-]41[O][Au-]2([O]1)[n+]1c(C)ccc3ccc4ccc(C)[n+]2c4c31.F[P-](F)(F)(F)(F)F.F[P-](F)(F)(F)(F)F` [Au2phen, ((2,9-dimethyl-1,10-phenanthroline)2Au2(µ-O)2)(PF6)2], the “increase of proapoptotic Bax protein” value with Bax is recorded as “about 29%”. Also, the “decrease of complex II protein content” value in the assay with OXPHOS complex II amounted to 66%. Moreover, in assay [1], the IC50 amounted to 11.8 ± 0.25 µM and the “IC50 for PNT1 higher than for A2780 (fold)” value was “about 14 fold”. The “respiratory control ratio (RCR), complex I-driven” value in assay [2] is reported as “about 1.8”. In assay [3], the IC50 was 4.18 ± 0.05 µM and the “IC50 for HEK higher than for A2780 (fold)” value is recorded as 5 fold. Also, in assay [4], the “respiratory control ratio (RCR), complex II-driven” value was “about 1.7”. In assay [5], the “effect on TrxR enzyme activity” value was “clear tendency to inhibit the TrxR activity, even if the changes were not statistically significant” and the “inhibition of TrxR enzyme activity” value is ~ 26%.
As for `CCOC(=O)CN(C)C1=[S+][Au-]([Br])([Br])[S]1` [AuL12, dibromo(ethylsarcosinedithiocarbamate)gold(III), reference compound], the “increase of proapoptotic Bax protein” value with Bax is on record as roughly 34%. The “decrease of complex II protein content” value in the assay with OXPHOS complex II was found to be 40%. In assay [1], the IC50 came out at 12.3 ± 0.17 µM and the “IC50 for PNT1 higher than for A2780 (fold)” value is 3 fold. In addition, the “respiratory control ratio (RCR), complex I-driven” value in assay [2] was found to be 2.3. In assay [3], the IC50 was 10.7 ± 0.36 µM and the “IC50 for HEK higher than for A2780 (fold)” value amounted to 2.7 fold. The “respiratory control ratio (RCR), complex II-driven” value in assay [4] is reported as “about 2.4”. In assay [5], the “effect on TrxR enzyme activity” value was “clear tendency to inhibit the TrxR activity, even if the changes were not statistically significant” and the “inhibition of TrxR enzyme activity” value was “about 50%”.
`Cc1cccc2[n+]1[Au-]1([O][Au-]3([O]1)[n+]1c(C)cccc1-c1cccc(C)[n+]13)[n+]1c(C)cccc1-2.F[P-](F)(F)(F)(F)F.F[P-](F)(F)(F)(F)F` [Auoxo6, ((6,6′-dimethyl-2,2′-bipyridine)2Au2(µ-O)2)(PF6)2]: the “increase of proapoptotic Bax protein” value in the assay with Bax was roughly 20%. Moreover, the “decrease of complex II protein content” value in the assay with OXPHOS complex II came to 70%. Besides, in assay [1], the IC50 came to 18.4 ± 0.3 µM and the “IC50 for PNT1 higher than for A2780 (fold)” value is roughly 16 fold. The “respiratory control ratio (RCR), complex I-driven” value in assay [2] was determined as 2.1. Also, in assay [3], the IC50 was found to be 6.16 ± 0.04 µM and the “IC50 for HEK higher than for A2780 (fold)” value was 5 fold. For the same compound, in assay [4], the “respiratory control ratio (RCR), complex II-driven” value was “about 1.8”. For the same compound, in assay [5], the “effect on TrxR enzyme activity” value was “clear tendency to inhibit the TrxR activity, even if the changes were not statistically significant” and the “inhibition of TrxR enzyme activity” value was “about 50%”.
